Measurements: patent US6379649B1, “Imidazo(1,2-a)pyridines as peripheral benzodiazepine receptor binding agents” (Australian Nuclear Science & Technology Organisation, priority 1998, dated 2002)

How the values were obtained:
[1] = target: T1, peripheral benzodiazepine receptor (Rattus norvegicus, UniProt P16257); test: Pretreatment (blocking) of uptake of radiolabelled compounds in rats; type: in vivo; design: high uptake in the tissues which have known PBR sites; from tissue; host or cells: living rats; organs with PBR sites; conditions: pretreatment with unlabelled substance (1 mg/kg)
[2] = target: T1, peripheral benzodiazepine receptor; test: In vitro binding assay for peripheral benzodiazepine receptors ([^3H]-PK11195, rat kidney membranes); design: diluted kidney membrane preparation; from tissue; host or cells: rat kidney membranes (Sprague Dawley)
Experimental: In Vitro Binding Assays for Peripheral Benzodiazepine Receptors
Male Sprague Dawley rats are sacrificed by CO2 administration followed by cervical dislocation. Kidneys are removed and placed in 20 volumes of ice-cold buffer ([…] Tris-HCl, pH 7.4) and minced finely with scissors. After homogenising the preparation with a polytron (PCU Kintematica, Bioblock, Switzerland) with one 10-second burst at a setting of 10, the suspension is centrifuged at 49,000 g for 15 minutes at 4° C. The pellets are resuspended in the previous buffer with a dounce (manual homogeniser) to yield an appropriate protein concentration. Protein measurements are made by Lowry's method using bovine serum albumin as standard.
(§1) Non-specific binding is determined by blocking with cold PK11195 (10 μM). Incubation is terminated by rapid filtration through Whatman GF/B glass fiber. Each sample tube and filter is immediately washed with 3 aliquots of 5 mL ice-cold […] Tris/HCl at pH 7.4. Filters are counted with a β-scintillation counter (Packard) to measure the amount of bound radioactivity. Ki and IC50 are calculated by EBDA/Ligand, iterative non-linear least squares curve-fitting programs.

[3] = target: central benzodiazepine receptor; test: In vitro binding assay for central benzodiazepine receptors ([^3H]-Ro 15-1788, rat cortex membranes); conditions: rat cortex membrane / rat brain homogenates, [^3H]-Ro 15-1788 2 nM, 25° C., 45 minutes; read-out: IC50 (nM) CBR
Experimental: In Vitro Binding Assays for Central Benzodiazepine Receptors
Male Sprague Dawley rats are sacrificed by CO2 administration followed by cervical dislocation. Cortex is removed and placed in 20 volumes of ice-cold buffer ([…] Tris-HCl, pH 7.4) and minced finely with scissors. After homogenising the preparation will a polytron (PCU Kinematica, Bioblock, Switzerland) with one 10-second burst at a setting of 6, the suspension is centrifuged at 20,000 g for 20 minutes at 4° C. The pellets are resuspended in the previous buffer with a dounce (manual homogeniser). After the second centrifugation, the pellet is suspended in a final buffer (50 nM Tris/HCl, 0.32M sucrose, pH 7.4) to yield an appropriate protein concentration. Protein measurements are made by Lowry's method using bovine serum albumin as standard.
as §1, with “Flumazenil (20” for “PK11195 (10”, “programs (G. A. McPherson, J. Pharmacol. Methods 14, 213-228 (1985)).” for “programs.”

Row | SMILES | effect of pretreatment on uptake of activity of the radiolabelled compounds in the tissues of interest [1] | melting point | IC50 [2] | IC50 [3]
1 | CCOC(=O)c1ncn2c1CN(C)C(=O)c1cc(F)ccc1-2 [Flumazenil] | only marginally | – | – | –
2 | CN1C(=O)CN=C(c2ccccc2)c2cc(Cl)ccc21 [Diazepam] | only marginally | – | – | –
3 | CCC(C)N(C)C(=O)c1cc2ccccc2c(-c2ccccc2Cl)n1 (stereo not drawn) [PK 11195, 1-(2-chlorophenyl)-N-methyl-N-(1-methylpropyl)-3-isoquinolinecarboxamide] | significantly reduced | – | – | –
4 | CN(C)C(=O)Cc1c(-c2ccc(Cl)cc2)nc2ccc(Br)cn12 [D] | – | 234 to 236 °C | 90 nM | 56.5 nM
